Measurements: ChEMBL document CHEMBL1158552, “Transkarbams as transdermal permeation enhancers: effects of ester position and ammonium carbamate formation” (Bioorg Med Chem Lett, 2010)

Assays:
[1] = Potentiation of theophylline transdermal permeation in pig ear skin at pH 7 by Franz diffusion cells method; type: ADME, Sus scrofa; settings: artificial membrane
[2] = Potentiation of theophylline transdermal permeation in pig ear skin by Franz diffusion cells method; type: ADME, cell-based, Sus scrofa; settings: artificial membrane

Row | Activity [1] | Activity [2] | Compound
1 | Active | – | CCCCCCCCOC(=O)CCCCCCCCCN.Cl
2 | Active | Active | CCCCCCCCCCCOC(=O)CCCCCCN.Cl
3 | Not Active | Active | CCCCCCCCCCCCOC(=O)CCCCCN
4 | Active | – | CCCCCCCCCCCCCCOC(=O)CCCN.Cl
5 | Active | – | CCCCCCCCCCCCCOC(=O)CCCCN.Cl
6 | Active | Active | CCCCCCCCCCCCOC(=O)CCCCCN.Cl
7 | Not Active | Active | CCCCCCCCCCCOC(=O)CCCCCCN
8 | Not Active | Active | CCCCCCCCCCCCCCOC(=O)CCCN
9 | Active | – | CCCCCCOC(=O)CCCCCCCCCCCN.Cl
10 | Not Active | Active | CCCCCCCCCCCCCCCOC(=O)CCN
11 | Not Active | Active | CCCCCCCCCCCCCOC(=O)CCCCN
12 | Active | – | CCCCCCCCCCCCCCCOC(=O)CCN.Cl
13 | Not Active | Active | CCCCCCCCOC(=O)CCCCCCCCCN
14 | Not Active | Active | CCCCCCCCCCOC(=O)CCCCCCCN
15 | Active | Active | CCCCCCCCCCOC(=O)CCCCCCCN.Cl
16 | Not Active | Active | CCCCCCOC(=O)CCCCCCCCCCCN
